In the supplement of paper PMC4862054:
“And” between values parts separate entries of the source, which are not always exact repeats. Equal values may be shown once.

Tests used:
HCC1937 = test: normalised viability (% of control), CellTiter-Blue; higher = more viable cells (about 100 = DMSO control); settings: incubation time: 72 h
Outline: (§1)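 Vehicle (100) and a positive kill control (0) anchored the normalisation of each plate, and Z'-factor was used for quality control. Breast cancer cell lines in 20 µl suspension were incubated 72 h over compound in 5 µl medium in 384-well plates, followed by CellTiter-Blue at 560/590 nm. The value is normalised viability at a single listed concentration of the series.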

HCC1143 = test: as above; settings: incubation time: 72 h
Outline: as §1

HDQ-P1 [1] = test: as above; settings: incubation time: 72 h
Outline: as §1

SK-BR-3 = test: as above; settings: incubation time: 72 h
Outline: as §1

MDA-MB-468 [2] = test: as above; settings: incubation time: 72 h
Outline: as §1

BT-474 [3] = test: as above; settings: incubation time: 72 h
Outline: as §1

DU-4475 = test: as above; settings: incubation time: 72 h
Outline: as §1

BT-549 = test: as above; settings: incubation time: 72 h
Outline: as §1

CAL-51 = test: as above; settings: incubation time: 72 h
Outline: as §1

MFM-223 = test: as above; settings: incubation time: 72 h
Outline: as §1

Hs578T = test: as above; settings: incubation time: 72 h
Outline: as §1

CAL-120 = test: as above; settings: incubation time: 72 h
Outline: as §1

MDA-MB-231 = test: as above; settings: incubation time: 72 h
Outline: as §1

MDA-MB-453 = test: as above; settings: incubation time: 72 h
Outline: as §1

CAL-85-1 = test: as above; settings: incubation time: 72 h
Outline: as §1

CAL-148 = test: as above; settings: incubation time: 72 h
Outline: as §1

HDQ-P1 [4] = settings: 72 h
Outline: (§2)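 Breast cancer cell lines (20 µl suspension) were seeded into 384-well plates holding compound at 5 concentrations in 10-fold steps over a compound-specific 10,000-fold range, then incubated 72 h. Cell death was read first by CellTox Green fluorescence (485/520 nm), then viability by CellTiter-Glo luminescence after 10 min at room temperature. Each plate was normalised to 0.1 % DMSO and a positive kill control. EC50 was fitted from the dose-response curves and censored at the top concentration.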

MDA-MB-468 [5] = settings: 72 h
Outline: as §2

BT-474 [6] = settings: 72 h
Outline: as §2

CC(=O)O[C@@]12CO[C@@H]1C[C@H](O)[C@@]1(C)C(=O)[C@H](O)C3=C(C)[C@@H](OC(=O)[C@H](O)[C@@H](NC(=O)OC(C)(C)C)c4ccccc4)C[C@@](O)([C@@H](OC(=O)c4ccccc4)[C@H]21)C3(C)C [Docetaxel]
Settings | normalised viability
BT-474 [3], 1 nM | 91.6% and 101%
BT-474 [3], 100 nM | 21.4% and 27.7%
BT-474 [3], 1000 nM | 16.9% and 28.5%
BT-549, 1 nM | 64.5% and 58.7%
BT-549, 100 nM | 24.3% and 19%
BT-549, 1000 nM | 24.4% and 20.3%
CAL-51, 0.3 nM | 112% and 93.8%
CAL-51, 3 nM | 67.8% and 60.9%
CAL-51, 10 nM | 45.5% and 33.4%
CAL-85-1, 0.3 nM | 96.7% and 101%
CAL-85-1, 3 nM | 56% and 56.9%
CAL-85-1, 10 nM | 36.1% and 35.2%
CAL-120, 1 nM | 84.9% and 81.7%
CAL-120, 100 nM | 25% and 23.5%
CAL-120, 1000 nM | 25.8% and 23.3%
CAL-148, 0.3 nM | 97.3% and 89.1%
CAL-148, 3 nM | 41.6% and 29.8%
CAL-148, 10 nM | 21.9% and 19.9%
DU-4475, 0.3 nM | 116% and 110%
DU-4475, 3 nM | 50.8% and 35.1%
DU-4475, 10 nM | 34.5% and 35.6%
HCC1143, 1 nM | 79.8% and 66.2%
HCC1143, 100 nM | 34.7% and 31.3%
HCC1143, 1000 nM | 35.3% and 33%
HCC1937, 1 nM | 53.9% and 76.2%
HCC1937, 100 nM | 20.5% and 17.5%
HCC1937, 1000 nM | 27.5% and 19%
HDQ-P1 [1], 0.3 nM | 86.7% and 84.7%
HDQ-P1 [1], 3 nM | 58.6% and 72.4%
Hs578T, 1 nM | 69% and 63.9%
Hs578T, 100 nM | 11.7% and 12.4%
Hs578T, 1000 nM | 12.3% and 9.74%
MDA-MB-231, 1 nM | 83% and 72.7%
MDA-MB-231, 100 nM | 17% and 21.6%
MDA-MB-231, 1000 nM | 21.6% and 21%
MDA-MB-453, 0.3 nM | 121% and 107%
MDA-MB-453, 3 nM | 48.1% and 57.8%
MDA-MB-453, 10 nM | 39.6% and 31.9%
MDA-MB-468 [2], 1 nM | 69.7% and 68.9%
MDA-MB-468 [2], 100 nM | 53% and 46.7%
MDA-MB-468 [2], 1000 nM | 46.3% and 52.4%
MFM-223, 1 nM | 84.9% and 81.8%
MFM-223, 100 nM | 43.6% and 47.1%
MFM-223, 1000 nM | 47.8% and 41.5%
SK-BR-3, 1 nM | 85.7% and 86.8%
SK-BR-3, 100 nM | 19% and 14.4%
SK-BR-3, 1000 nM | 18.3% and 14.1%

Settings | EC50, CellTiter-Glo [nM]
BT-474 [6] | 7.47
HDQ-P1 [4] | 2.08
MDA-MB-468 [5] | 0.68
